Experimental data as given in patent publication US20120107317A1, “USE OF CYTOPLASMIC C-MYC FOR REGULATING IMMUNE RESPONSES” (priority 2010, published 2012).
Like-named read-outs stand apart in the source and are kept apart here.

Tests used:
c-Myc [1] = conditions: cited from earlier work
[2] = system: BCG-induced c-Myc mRNA expression; assay type: cell-based, human; conditions: then BCG (M.O.I.=1) 3 hours, vs DMSO
c-Myc [3] = experiment: Induction of c-Myc expression by HIV-1 Tat in primary human blood macrophages (RT-PCR, Western blot); assay type: cell-based; conditions: Tat 2, 4 or 6 hours (mRNA); 20 or 100 ng/ml 24 hours (protein)
Procedure: Briefly, PBMac were treated with or without Tat ([…]) for indicated time points (2, 4 or 6 hours). Total RNA was extracted for analyzing c-Myc mRNA expression levels by quantitative RT-PCR. In addition, PBMac were treated with HIV-1 Tat (20 or 100 ng/ml) for 24 hours. Cellular proteins were extracted for Western blot analyses to determine protein levels of c-Myc and actin. The level of actin was measured as a control of the amount of proteins loaded.

[4] = biological target: T1, c-Myc (endogenous protein of primary human blood macrophages) (human, UniProt P01106 16-454); experiment: co-immunoprecipitation with anti-c-Myc antibody from PBMac lysates, Western blot
T1 construct: Endogenous c-Myc in lysates of primary human blood macrophages (PBMac), with or without BCG treatment; also called cytoplasmic c-Myc
Procedure: Total proteins (200 μg) were extracted from PBMac by IP buffer (10 mM Tris [pH7.4], 1 mM EDTA, 1 mM EGTA, 150 mM NaCl, 0.5% NP-40, 1% Triton X-100, inhibitor cocktails of proteases and phosphatases), and were incubated with 1μg primary antibodies against IκBα(Santa Cruz Biotechnology, USA) or c-Myc (Millipore, USA) for 2 hours at 4° C. and then with 20 μl Protein A/G agarose beads (Santa Cruz Biotechnology, USA) for 1 hour at 4° C. The immunoprecipitates were then washed 6 times with IP buffer. Cytoplasmic and nuclear proteins were extracted from PBMac as previously described (Cheung et al., 2005; Lee et al., 2005). Immunoprecipitated, cytoplasmic (50 μg) or nuclear proteins (10 μg) were analyzed by Western Blot as in our previous reports (Cheung et al., 2005; Lee et al., 2005).

[5] = 10 μM inhibitor 1 hour pretreatment

T1 sequence (P01106 16-454 limits assumed): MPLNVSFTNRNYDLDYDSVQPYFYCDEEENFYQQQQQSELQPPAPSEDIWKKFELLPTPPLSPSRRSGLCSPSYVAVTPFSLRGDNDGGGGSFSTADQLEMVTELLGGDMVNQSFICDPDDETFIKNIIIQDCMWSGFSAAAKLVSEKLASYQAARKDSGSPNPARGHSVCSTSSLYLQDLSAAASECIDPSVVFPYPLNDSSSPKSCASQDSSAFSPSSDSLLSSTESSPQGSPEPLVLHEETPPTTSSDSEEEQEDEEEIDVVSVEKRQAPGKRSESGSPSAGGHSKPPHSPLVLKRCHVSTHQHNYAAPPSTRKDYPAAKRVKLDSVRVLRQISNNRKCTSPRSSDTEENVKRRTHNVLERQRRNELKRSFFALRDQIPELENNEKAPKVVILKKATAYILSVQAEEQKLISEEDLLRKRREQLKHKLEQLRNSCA

With `C[n+]1ccc(-c2c3nc(c(-c4cc[n+](C)cc4)c4ccc([nH]4)c(-c4cc[n+](C)cc4)c4ccc([nH]4)c(-c4cc[n+](C)cc4)c4nc2C=C4)C=C3)cc1` [Cationic Porphyrin TMPyP4] as the molecule, how does the “expression and activity of c-Myc” value (c-Myc [1]) read?
The value was “inhibit both the expression and activity of c-Myc”.

Which “level of BCG-induced c-Myc mRNA expression” value (shortened to “level”) [2, 5] does the source give for `COc1cccc(-c2cc(=O)c3ccccc3o2)c1N` [PD98059] here?
The value was “significantly reduced”.

For `O=C1c2ccccc2-c2n[nH]c3cccc1c23` [SP600159], which “level” value [2, 5] is on record?
Its value is “significantly reduced”.

For `O=C(/C=C/c1ccc(O)c(O)c1)OCCc1ccccc1` [CAPE], which “level” value ([2]; 15 μg/ml inhibitor 1 hour pretreatment) is on record?
The value was “did not affect”.

Which “level” value [2, 5] does the source give for `C[S+]([O-])c1ccc(-c2nc(-c3ccncc3)c(-c3ccc(F)cc3)[nH]2)cc1` (stereo not shown) [SB203580] here?
Its value is “did not affect”.

B1: HIV-1 Tat: HIV-1 Tat protein used to treat primary human blood macrophages (protein, UniProt P04608 1-86, looked up)
Protein Tat: MEPVDPRLEPWKHPGSQPKTACTNCYCKKCCFHCQVCFITKALGISYGRKKRRQRRRAHQNSQTHQASLSKQPTSQPRGDPTGPKE
Which “c-Myc expression (mRNA and protein)” value (c-Myc [3]) does the source give for B1 here?
Its value is “induces c-Myc expression”.

B2: ERK1 (member of ERK1/2, endogenous protein of primary human blood macrophages) (enzyme, UniProt P27361 2-379, looked up)
chain: AAAAAQGGGGGEPRRTEGVGPGVPGEVEMVKGQPFDVGPRYTQLQYIGEGAYGMVSSAYDHVRKTRVAIKKISPFEHQTYCQRTLREIQILLRFRHENVIGIRDILRASTLEAMRDVYIVQDLMETDLYKLLKSQQLSNDHICYFLYQILRGLKYIHSANVLHRDLKPSNLLINTTCDLKICDFGLARIADPEHDHTGFLTEYVATRWYRAPEIMLNSKGYTKSIDIWSVGCILAEMLSNRPIFPGKHYLDQLNHILGILGSPSQEDLNCIINMKARNYLQSLPSKTKVAWAKLFPKSDSKALDLLDRMLTFNPNKRITVEEALAHPYLEQYYDPTDEPVAEEPFTFAMELDDLPKERLKELIFQETARFQPGVLEAP
notes: It is split here into its two members
Does B2 bind [4]?
Result: no binding
